Experimental data: EPA's ToxRefDB 2

Key:
rabbit = conditions: Sub-acute dermal toxicity, new zealand white, Topical, dose end: 21 day, group: systemic, systemic / in life observation / clinical signs / erythema + systemic / pathology gross / skin / discolored + systemic / pathology gross / …
rat [1] = conditions: Subchronic oral toxicity in rodents, other, Gavage/Intubation, dose end: 92 day, group: systemic, systemic / in life observation / clinical signs / respiration (rales) + systemic / in life observation / mortality / mortality + systemic / …
rat [2] = conditions: Subchronic oral toxicity in rodents, sprague dawley, Feed, dose end: 13 week, group: systemic
mouse [3] = conditions: Subchronic oral toxicity in rodents, other, Feed, dose end: 90 day, group: systemic, systemic / in life observation / clinical signs / aggressive behavior + systemic / in life observation / clinical signs / irritability + …
rat [4] = conditions: Combined chronic toxicity/carcinogenicity, sprague dawley, Oral, Feed, dose end: 2 year, group: systemic
mouse [5] = conditions: Carcinogenicity, cd1, Oral, Feed, dose end: 78 week, group: systemic
dog [6] = conditions: Subchronic oral toxicity in nonrodent, beagle, Capsule, dose end: 13 week, group: systemic
rat [7] = conditions: Prenatal developmental toxicity study, sprague dawley, Oral, Gavage/Intubation, dose end: 15 GD
dog [8] = conditions: Chronic toxicity; beagle; Oral; Capsule; dose end: 52 week; group: systemic; systemic / in life observation / clinical signs / excitation + systemic / in life observation / clinical signs / hypersensitivity + systemic…
mouse [9] = conditions: Subchronic oral toxicity in rodents, cd1, Feed, dose end: 13 week, group: systemic
[10] = systemic / clinical chemistry / urea nitrogen / urea nitrogen + systemic / clinical chemistry / aspartate aminotransferase (ast/sgot) / …
[11] = systemic / clinical chemistry / albumin / albumin + systemic / clinical chemistry / albumin-globulin ratio / albumin-globulin ratio + …
[12] = systemic / organ weight / brain / relative to body weight + systemic / organ weight / spleen / absolute + systemic / organ weight / thyroid …
[13] = systemic / organ weight / liver / relative to body weight + systemic / pathology microscopic / liver / vacuolization + systemic / in life …
[14] = systemic / in life observation / body weight / body weight gain + systemic / in life observation / clinical signs / anorexia
[15] = systemic / in life observation / body weight / body weight gain + systemic / in life observation / clinical signs / anorexia + systemic / in…
[16] = group: developmental, developmental / developmental malformation / bone / incomplete ossification + systemic / in life observation / body weight / fetal weight
[17] = group: maternal, systemic / in life observation / body weight / body weight gain + systemic / in life observation / food consumption / food consumption + …
[18] = systemic / pathology microscopic / liver / hypertrophy + systemic / pathology microscopic / liver / vacuolization cytoplasmic

Compound: O=C(CBr)c1ccc(O)cc1 [2-Bromo-4-hydroxyacetophenone]
- LEL (rabbit): 20 mg/kg/day
- LOAEL (rabbit): 20 mg/kg/day
- NEL (rabbit): < 20 mg/kg/day
- NOAEL (rabbit): < 20 mg/kg/day
- LEL (rat [1]): 30 mg/kg/day
- LOAEL (rat [1]): 30 mg/kg/day
- NEL (rat [1]): 6 mg/kg/day
- NOAEL (rat [1]): 6 mg/kg/day

Compound: N#Cc1nn(-c2c(Cl)cc(C(F)(F)F)cc2Cl)c(N)c1S(=O)C(F)(F)F (centres undefined) [Fipronil]
- LOAEL (rat [2]; systemic / clinical chemistry / protein / protein): 1.93 mg/kg/day
- NOAEL (rat [2]; systemic / clinical chemistry / protein / protein + systemic / clinical chemistry / albumin-globulin ratio / albumin-globulin ratio + …): 0.33 mg/kg/day
- LEL (rat [2]; [10]): 0.07 mg/kg/day
- NEL (rat [2]; [10]): < 0.07 mg/kg/day
- LEL (mouse [3]): 0.32 mg/kg/day
- LOAEL (mouse [3]): 0.32 mg/kg/day
- NEL (mouse [3]): 0.08 mg/kg/day
- NOAEL (mouse [3]): 0.08 mg/kg/day
- LOAEL (rat [4]; [11]): 0.059 mg/kg/day
- NOAEL (rat [4]; [11]): 0.019 mg/kg/day
- LEL (rat [4]; [12]): 0.019 mg/kg/day
- NEL (rat [4]; [12]): < 0.019 mg/kg/day
- LEL (mouse [5]; systemic / organ weight / liver / relative to body weight): 0.055 mg/kg/day
- LOAEL (mouse [5]; [13]): 1.18 mg/kg/day
- NEL (mouse [5]; [13]): 0.011 mg/kg/day
- NOAEL (mouse [5]; [13]): 0.055 mg/kg/day
- LEL (dog [6]; [14]): 2 mg/kg/day
- LOAEL (dog [6]; [14]): 2 mg/kg/day
- NEL (dog [6]; [15]): 0.5 mg/kg/day
- NOAEL (dog [6]; [15]): 0.5 mg/kg/day
- LOAEL (rat [7]; group: developmental, developmental / developmental malformation / bone / incomplete ossification): 2.5 mg/kg/day
- LEL (rat [7]; [16]): 2.5 mg/kg/day
- NEL (rat [7]; [16]): 1 mg/kg/day
- NOAEL (rat [7]; [16]): 1 mg/kg/day
- LEL (rat [7]; [17]): 2.5 mg/kg/day
- LOAEL (rat [7]; [17]): 2.5 mg/kg/day
- NEL (rat [7]; [17]): 1 mg/kg/day
- NOAEL (rat [7]; [17]): 1 mg/kg/day
- LEL (dog [8]): 2 mg/kg/day
- LOAEL (dog [8]): 2 mg/kg/day
- NEL (dog [8]): 0.2 mg/kg/day
- NOAEL (dog [8]): 0.2 mg/kg/day
- LOAEL (mouse [9]; systemic / in life observation / body weight / body weight gain): 3.2 mg/kg/day
- NOAEL (mouse [9]; systemic / in life observation / body weight / body weight gain + systemic / organ weight / liver / absolute + systemic / organ weight / …): 1.27 mg/kg/day
- LEL (mouse [9]; [18]): 0.13 mg/kg/day
- NEL (mouse [9]; [18]): < 0.13 mg/kg/day
